Consider two compounds from patent publication US20220151921A1, “MONOCYTE-SELECTIVE DRUG DELIVERY SYSTEM USING SINGLE-WALLED CARBON NANOTUBES TO INDUCE EFFEROCYTOSIS” (The Board of Trustees of the Leland Stanford Junior …, priority 2019, published 2022).

One data set concerns the target SHP-1 (Homo sapiens, UniProt P29350). To be noted: cited from earlier work.
The next data set is described as follows: TPI release assay. The format is physicochemical. The conditions noted are these: PBS pH 5.5 and 6.5, carbonate buffer pH 9, through day 7. As for the experimental part:
TPI release Assay. We conducted assays to evaluate TPI release from SWNTs in carbonate buffer (pH 9) and PBS buffer (pH 6.5 and 5.5). SWNT-TPI (200 μL, 16.5 TPI molecules/SWNT on average) was added to MINI Dialysis Devices (MWCO: 20K) and the volume of release medium was 3 mL. At fixed timepoints from 1 day to 7 days, 2 μL of the outlet medium was removed to test the rate of TPI release. The cumulative drug release (CDR) percentage was calculated by the following equation: CDR (%)=Wreleased/Wloaded×100% Here, CDR represents the cumulative drug release percentage, Wreleased represents the mass of released TPI in the release media, Wloaded represents the total mass of TPI. TPI release in serum (20% Fetal Bovine Serum (FBS) in Phosphate-buffered saline (PBS)): the timepoints, sample volume, and calculation methods were identical to the above.

Another data set has as its system RAW 264.7 cells. In words: Cell proliferation assay (modified MTT). The format is cell-based, murine. As for the experimental part:
Cell Proliferation Assay. A modified MTT (3-[4,5-dimethyl-thiazol-2-yl]-2,5-diphenyltetrazolium bromide) assay was performed to analyze macrophage proliferation. RAW 264.7 cells were plated at 25,000 cells/well in a 96-well plate grown overnight at 37°C., and serum-starved for the next 24 hrs. Cells were stimulated with 10% FBS for 24 hrs with SWNTs (4 nM), SWNT-TPI (TPI: 25 nM and 50 nM), or TPI (25 nM), and then incubated with 10 μL of MTT AB solution (Millipore, Billerica) for 2 hr. 100 μL of acidic isopropanol (0.04N HCl) was added to each well and the absorbance was measured at 570 nm (reference wavelength 650 nm) on an ELISA plate reader a SpectraMax 190 Microplate Reader (Molecular Devices). Statistical analysis Statistical differences were determined by one-way ANOVA, and results were expressed as means±SE. p-value<0.05 and p-value<0.01 were considered to indicate statistical significance. Statistical analyses were performed using GraphPad Prism 7 (GraphPad Inc.).

SHP-1, sequence (P29350 whole entry): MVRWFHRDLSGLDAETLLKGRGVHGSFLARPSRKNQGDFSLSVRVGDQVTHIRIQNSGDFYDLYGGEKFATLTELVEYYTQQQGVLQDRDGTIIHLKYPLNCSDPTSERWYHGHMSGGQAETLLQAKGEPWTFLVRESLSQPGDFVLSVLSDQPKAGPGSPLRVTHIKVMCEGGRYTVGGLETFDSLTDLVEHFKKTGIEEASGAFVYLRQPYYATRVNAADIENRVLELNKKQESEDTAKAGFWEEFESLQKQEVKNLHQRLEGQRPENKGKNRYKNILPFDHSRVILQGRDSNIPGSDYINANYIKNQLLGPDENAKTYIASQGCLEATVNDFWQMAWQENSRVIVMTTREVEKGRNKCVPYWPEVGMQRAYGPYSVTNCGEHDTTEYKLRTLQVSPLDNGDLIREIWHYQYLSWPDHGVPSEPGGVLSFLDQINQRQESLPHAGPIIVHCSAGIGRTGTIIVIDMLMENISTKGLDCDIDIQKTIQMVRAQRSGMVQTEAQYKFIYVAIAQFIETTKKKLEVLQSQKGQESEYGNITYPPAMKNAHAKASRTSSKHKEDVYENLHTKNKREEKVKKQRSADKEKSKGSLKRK

As a reminder, the IC50 is the concentration that gives 50% inhibition. For the compound `O=S(=O)(O)c1ccc2cc(N=Nc3cc(S(=O)(=O)O)c4cccnc4c3O)ccc2c1` [NSC87877], the IC50 on SHP-1 is 355 nM.
On to `O=C1C=CC(=O)C(c2cc(Cl)ccc2Cl)=C1` [TPI, 2-(2,5-dichlorophenyl)-2,5-cyclohexadiene-1,4-dione], for which the “TPI release from SWNTs in saline buffers” value in the data set “TPI release assay” is reported as “accelerated by progressively more acidic conditions”. The RAW cell proliferation result in the data set on RAW 264.7 cells was “no significant effect”. Moreover, at SHP-1, the IC50 was 40 nM and the “selectivity for SHP-1 over SHP-2” value is listed as “selective toward SHP-1”. For the same compound, at SHP-1 (versus sodium stibogluconate), the “effectiveness as SHP-1 inhibitor relative to sodium stibogluconate” value is recorded as “over two orders of magnitude”.
